Reference: ChEMBL document CHEMBL3124815, “Discovery of a selective kinase inhibitor (TAK-632) targeting pan-RAF inhibition: design, synthesis, and biological evaluation of C-7-substituted 1,3-benzothiazole derivatives” (J Med Chem, 2013)
≈ marks a conversion by molar mass, not a printed value.

Experiments:
[1] = molecular target: Hepatocyte growth factor receptor (Homo sapiens, UniProt P08581); experiment: Inhibition of c-Met receptor (unknown origin) using biotinylated poly-Glu-Tyr (4:1) as substrate preincubated for 5 mins measured after 12 hrs
[2] = test system: A-375; experiment: Antitumor activity against human A375 cells expressing BRAF V600E mutant xenografted in F344 nude rat assessed as reduction in tumor size at 24.1 mg/kg, po bid for 14 days relative to control; assay type: functional
[3] = organism: Homo sapiens; experiment: Selectivity factor, ratio of IC50 for VEGFR2 (unknown origin) to IC50 for N-terminal FLAG-tagged recombinant BRAF-V600E (unknown origin) expressed in baculovirus system
[4] = Antitumor activity against human HMVII cells expressing NRAS Q61K/BRAF G469V mutant xenografted in F344 nude rat assessed as reduction in tumor size at 9.7 mg/kg, po bid for 14 days relative to control; assay type: functional, HMV-2
[5] = Inhibition of PKA (unknown origin) expressed in Escherichia coli after 10 mins; parameters: species or system Homo sapiens
[6] = molecular target: Receptor tyrosine-protein kinase erbB-2 (Homo sapiens, UniProt P04626); experiment: Inhibition of N-terminal peptide (DYKDDDD)-tagged HER2 (unknown origin) expressed in baculovirus system using biotinylated poly-Glu-Tyr (4:1) as substrate preincubated for 5 mins measured after 12 hrs by scintillation counting
[7] = test system: A-375; experiment: Antitumor activity against human A375 cells expressing BRAF V600E mutant xenografted in F344 nude rat assessed as reduction in tumor size at 9.7 mg/kg, po bid for 14 days relative to control; assay type: functional
[8] = molecular target: T1, Serine/threonine-protein kinase B-raf (Homo sapiens, UniProt P15056, V600E); experiment: Inhibition of BRAF V600E mutant in human A375 cells assessed as phosphorylation of ERK after 2 hrs by Western blotting analysis; assay type: cell-based, A-375
[9] = molecular target: T2, RAF proto-oncogene serine/threonine-protein kinase (Homo sapiens, UniProt P04049); experiment: Inhibition of CRAF (unknown origin) compound preincubated for 1 hr in presence of 0.5 uM ATP
[10] = molecular target: Insulin receptor (Homo sapiens, UniProt P06213); experiment: Inhibition of Insulin receptor (unknown origin) using biotinylated poly-Glu-Tyr (4:1) as substrate preincubated for 5 mins measured after 12 hrs
[11] = molecular target: T2, RAF proto-oncogene serine/threonine-protein kinase; experiment: Inhibition of CRAF (unknown origin) compound preincubated for 1 hr in presence of 1000 uM ATP
[12] = Total clearance in rat at 1 mg/kg, iv; assay type: ADME, organism-based; parameters: dose 1 mg/kg, route intravenous; settings: in vivo
[13] = molecular target: T2, RAF proto-oncogene serine/threonine-protein kinase; experiment: Competitive inhibition of CRAF (unknown origin) in presence of 0.5 uM ATP by ELISA
[14] = molecular target: Mitogen-activated protein kinase kinase kinase 1 (Homo sapiens, UniProt Q13233); experiment: Inhibition of C-terminal FLAG-tagged MEKK1 (unknown origin) expressed in baculovirus system using MBP as substrate after 60 mins
[15] = molecular target: T2, RAF proto-oncogene serine/threonine-protein kinase; experiment: Inhibition of N-terminal FLAG-tagged wild type C-RAF (unknown origin) expressed in baculovirus system using GST-MEK1(K96R) as substrate after 20 mins
[16] = molecular target: T1, Serine/threonine-protein kinase B-raf; experiment: Inhibition of BRAF V600E mutant in human HT-29 cells assessed as phosphorylation of MEK; assay type: cell-based
[17] = molecular target: Aurora kinase B (Homo sapiens, UniProt Q96GD4); experiment: Inhibition of N-terminal His-6-tagged Aurora kinase B (unknown origin) expressed in baculovirus system after 60 mins
[18] = molecular target: Mitogen-activated protein kinase 8 (Homo sapiens, UniProt P45983); experiment: Inhibition of C-terminal FLAG-tagged JNK1 (unknown origin) expressed in baculovirus system using c-jun as substrate after 60 mins
[19] = test system: Rattus norvegicus; experiment: Toxicity in F344 nude rat xenografted with human HMVII cells expressing NRAS Q61K/BRAF G469V mutant assessed as body weight change at 24.1 mg/kg, po bid for 14 days; assay type: organism-based; parameters: dose 24.1 mg/kg, route oral; settings: in vivo, 336 h
[20] = Solubility of the compound in form of solid dispersion in phosphate buffer at pH 6.8; assay type: physicochemical
[21] = test system: Rattus norvegicus; experiment: Toxicity in F344 nude rat xenografted with human A375 cells expressing BRAF V600E mutant assessed as body weight change at 9.7 mg/kg, po bid for 14 days relative to control; assay type: organism-based, A-375; parameters: dose 9.7 mg/kg, route oral; settings: in vivo, 336 h
[22] = molecular target: CDK2/Cyclin A2 (Homo sapiens, UniProt P24941); experiment: Inhibition of CDK2/CycA (unknown origin) using histone H1 as substrate after 20 mins; assay type: protein-complex assay
[23] = test system: Rattus norvegicus; experiment: Toxicity in F344 nude rat xenografted with human HMVII cells expressing NRAS Q61K/BRAF G469V mutant assessed as body weight change at 9.7 mg/kg, po bid for 14 days; assay type: organism-based; parameters: dose 9.7 mg/kg, route oral; settings: in vivo, 336 h
[24] = Mean residence time in dog at 1 mg/kg, iv; assay type: ADME, organism-based, Canis lupus familiaris; parameters: dose 1 mg/kg, route intravenous; settings: in vivo
[25] = molecular target: Glycogen synthase kinase-3 beta (Homo sapiens, UniProt P49841); experiment: Inhibition of C-terminal FLAG-tagged GSK3beta (unknown origin) expressed in baculovirus system after 30 mins
[26] = molecular target: Casein kinase I isoform delta (Homo sapiens, UniProt P48730); experiment: Inhibition of CK1delta (unknown origin) using CK1tide as substrate after 20 mins
[27] = molecular target: Cyclin-dependent kinase 1/cyclin B1 (Homo sapiens, UniProt P06493); experiment: Inhibition of CDK1/CycB (unknown origin) using histone H1 as substrate after 20 mins; assay type: protein-complex assay
[28] = molecular target: Mitogen-activated protein kinase 3 (Homo sapiens, UniProt P27361); experiment: Inhibition of C-terminal FLAG-tagged ERK1 expressed in baculovirus system (unknown origin) using MBP as substrate after 60 mins
[29] = AUC (0 to 24 hrs) in rat at 1 mg/kg, iv; assay type: ADME, organism-based; parameters: time < 24 hr, dose 1 mg/kg, route intravenous; settings: plasma
[30] = molecular target: T2, RAF proto-oncogene serine/threonine-protein kinase; experiment: Binding affinity to CRAF (unknown origin) assessed as equilibrium dissociation constant by surface plasmon resonance analysis
[31] = test system: Rattus norvegicus; experiment: Toxicity in F344 nude rat xenografted with human A375 cells expressing BRAF V600E mutant assessed as body weight change at 3.9 mg/kg, po bid for 14 days relative to control; assay type: organism-based, A-375; parameters: dose 3.9 mg/kg, route oral; settings: in vivo, 336 h
[32] = Mean residence time in rat at 1 mg/kg, iv; assay type: ADME, organism-based; parameters: dose 1 mg/kg, route intravenous; settings: in vivo
[33] = Solubility of the compound in phosphate buffer at pH 6.8; assay type: physicochemical
[34] = test system: Rattus norvegicus; experiment: Toxicity in F344 nude rat xenografted with human A375 cells expressing BRAF V600E mutant assessed as body weight change at 1.9 mg/kg, po bid for 14 days relative to control; assay type: organism-based, A-375; parameters: dose 1.9 mg/kg, route oral; settings: in vivo, 336 h
[35] = Mean residence time in rat at 25 mg/kg, po; assay type: ADME, organism-based; parameters: dose 25 mg/kg, route oral; settings: in vivo
[36] = molecular target: T2, RAF proto-oncogene serine/threonine-protein kinase; experiment: Inhibition of CRAF (unknown origin) in presence of 1000 uM ATP by ELISA
[37] = molecular target: T2, RAF proto-oncogene serine/threonine-protein kinase
Description: Binding affinity to CRAF (unknown origin) assessed as dissociation half life by surface plasmon resonance analysis

[38] = test system: A-375; experiment: Antitumor activity against human A375 cells expressing BRAF V600E mutant xenografted in F344 nude rat assessed as reduction in tumor size at 1.9 mg/kg, po bid for 14 days relative to control; assay type: functional
[39] = molecular target: Proto-oncogene tyrosine-protein kinase Src (Homo sapiens, UniProt P12931); experiment: Inhibition of Src receptor (unknown origin) using biotinylated poly-Glu-Tyr (4:1) as substrate preincubated for 5 mins measured after 12 hrs
Sequence of Proto-oncogene tyrosine-protein kinase Src (P12931 2-536 limits assumed): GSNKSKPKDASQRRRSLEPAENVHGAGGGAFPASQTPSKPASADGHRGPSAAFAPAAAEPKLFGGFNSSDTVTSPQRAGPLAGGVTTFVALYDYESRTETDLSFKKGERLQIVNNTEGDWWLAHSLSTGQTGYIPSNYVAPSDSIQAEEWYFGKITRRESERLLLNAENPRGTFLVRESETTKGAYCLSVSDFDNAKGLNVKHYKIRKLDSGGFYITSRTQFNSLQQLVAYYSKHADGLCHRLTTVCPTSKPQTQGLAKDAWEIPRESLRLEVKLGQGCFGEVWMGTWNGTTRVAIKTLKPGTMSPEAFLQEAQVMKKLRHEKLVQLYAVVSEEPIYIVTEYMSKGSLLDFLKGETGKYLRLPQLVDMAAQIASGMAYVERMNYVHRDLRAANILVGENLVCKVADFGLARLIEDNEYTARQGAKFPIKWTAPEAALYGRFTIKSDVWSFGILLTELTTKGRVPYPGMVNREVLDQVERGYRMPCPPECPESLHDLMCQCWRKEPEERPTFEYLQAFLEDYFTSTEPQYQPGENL

T2 sequence (P04049 whole entry): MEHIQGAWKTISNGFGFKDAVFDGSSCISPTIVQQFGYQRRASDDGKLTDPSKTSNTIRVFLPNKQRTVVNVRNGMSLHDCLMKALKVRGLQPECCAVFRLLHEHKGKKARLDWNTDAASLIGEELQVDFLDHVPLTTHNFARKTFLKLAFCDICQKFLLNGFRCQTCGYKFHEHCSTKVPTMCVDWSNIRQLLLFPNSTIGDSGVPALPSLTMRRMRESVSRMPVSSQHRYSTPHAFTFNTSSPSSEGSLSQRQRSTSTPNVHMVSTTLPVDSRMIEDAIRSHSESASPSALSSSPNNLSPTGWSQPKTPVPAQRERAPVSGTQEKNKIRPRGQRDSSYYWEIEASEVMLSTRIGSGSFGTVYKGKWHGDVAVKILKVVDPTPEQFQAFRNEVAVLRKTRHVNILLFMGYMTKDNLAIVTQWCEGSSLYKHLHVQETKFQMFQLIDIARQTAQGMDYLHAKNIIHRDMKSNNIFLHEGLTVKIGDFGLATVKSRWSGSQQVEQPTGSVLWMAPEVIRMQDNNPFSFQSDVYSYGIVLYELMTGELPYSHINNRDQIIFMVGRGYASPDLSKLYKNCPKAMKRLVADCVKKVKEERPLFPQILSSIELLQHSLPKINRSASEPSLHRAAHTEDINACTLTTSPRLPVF
T1 sequence (P15056 2-766 V600E limits assumed): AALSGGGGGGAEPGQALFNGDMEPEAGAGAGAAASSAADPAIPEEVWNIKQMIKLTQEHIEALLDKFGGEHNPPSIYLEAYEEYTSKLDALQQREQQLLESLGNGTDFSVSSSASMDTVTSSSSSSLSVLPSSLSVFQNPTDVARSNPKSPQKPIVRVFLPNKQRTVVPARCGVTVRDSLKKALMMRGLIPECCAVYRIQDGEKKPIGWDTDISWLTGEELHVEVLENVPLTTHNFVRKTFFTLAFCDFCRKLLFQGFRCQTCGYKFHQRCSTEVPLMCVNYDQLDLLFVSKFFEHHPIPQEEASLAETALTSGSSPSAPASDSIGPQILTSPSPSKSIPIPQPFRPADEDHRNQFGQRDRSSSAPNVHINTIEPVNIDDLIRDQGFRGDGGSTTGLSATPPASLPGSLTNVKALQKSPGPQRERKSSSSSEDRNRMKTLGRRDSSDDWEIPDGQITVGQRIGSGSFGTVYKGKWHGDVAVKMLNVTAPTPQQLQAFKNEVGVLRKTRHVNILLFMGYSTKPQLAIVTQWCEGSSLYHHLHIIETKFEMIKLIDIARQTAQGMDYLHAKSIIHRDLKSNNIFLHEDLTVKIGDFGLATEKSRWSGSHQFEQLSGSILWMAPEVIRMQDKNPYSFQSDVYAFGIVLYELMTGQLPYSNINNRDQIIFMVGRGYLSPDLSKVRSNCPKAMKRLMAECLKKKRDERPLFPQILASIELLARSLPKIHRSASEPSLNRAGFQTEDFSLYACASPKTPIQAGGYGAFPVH
Sequence of Insulin receptor (P06213 28-758 limits assumed): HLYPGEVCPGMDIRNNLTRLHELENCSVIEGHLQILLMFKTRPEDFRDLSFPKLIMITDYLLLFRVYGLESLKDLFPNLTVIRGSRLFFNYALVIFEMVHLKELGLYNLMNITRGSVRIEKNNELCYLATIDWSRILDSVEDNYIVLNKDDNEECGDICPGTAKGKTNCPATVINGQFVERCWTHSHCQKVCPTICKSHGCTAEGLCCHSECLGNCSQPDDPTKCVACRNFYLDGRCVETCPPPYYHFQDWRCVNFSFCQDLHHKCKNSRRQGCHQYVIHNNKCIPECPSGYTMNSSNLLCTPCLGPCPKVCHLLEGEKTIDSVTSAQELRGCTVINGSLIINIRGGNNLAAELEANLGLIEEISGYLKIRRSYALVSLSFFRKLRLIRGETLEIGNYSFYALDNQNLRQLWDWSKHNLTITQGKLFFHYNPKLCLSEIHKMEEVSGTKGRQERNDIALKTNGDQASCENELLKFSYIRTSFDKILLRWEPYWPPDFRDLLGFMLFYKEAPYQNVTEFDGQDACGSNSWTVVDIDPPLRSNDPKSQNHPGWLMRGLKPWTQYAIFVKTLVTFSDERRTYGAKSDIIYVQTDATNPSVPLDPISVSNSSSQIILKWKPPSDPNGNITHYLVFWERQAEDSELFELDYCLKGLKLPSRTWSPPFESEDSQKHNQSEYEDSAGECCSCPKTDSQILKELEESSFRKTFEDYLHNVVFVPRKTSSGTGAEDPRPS
Sequence of Insulin receptor (P06213 763-1382 limits assumed): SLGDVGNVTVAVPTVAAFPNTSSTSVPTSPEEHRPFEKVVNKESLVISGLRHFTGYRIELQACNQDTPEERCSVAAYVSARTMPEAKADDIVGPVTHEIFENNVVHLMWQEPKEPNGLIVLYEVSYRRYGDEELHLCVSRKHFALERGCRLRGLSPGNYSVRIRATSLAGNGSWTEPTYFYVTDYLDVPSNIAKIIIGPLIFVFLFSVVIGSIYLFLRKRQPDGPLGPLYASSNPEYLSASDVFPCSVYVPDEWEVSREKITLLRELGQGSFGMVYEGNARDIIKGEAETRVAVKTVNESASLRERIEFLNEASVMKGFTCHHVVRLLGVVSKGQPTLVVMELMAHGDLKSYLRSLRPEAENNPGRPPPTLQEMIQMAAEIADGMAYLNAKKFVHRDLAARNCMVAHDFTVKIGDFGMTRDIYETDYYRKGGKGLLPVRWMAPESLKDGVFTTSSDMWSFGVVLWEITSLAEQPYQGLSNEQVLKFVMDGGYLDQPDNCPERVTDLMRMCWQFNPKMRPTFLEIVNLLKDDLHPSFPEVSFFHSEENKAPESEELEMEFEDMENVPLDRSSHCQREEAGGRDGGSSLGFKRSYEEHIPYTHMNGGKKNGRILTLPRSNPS
Sequence of Mitogen-activated protein kinase 3 (P27361 whole entry): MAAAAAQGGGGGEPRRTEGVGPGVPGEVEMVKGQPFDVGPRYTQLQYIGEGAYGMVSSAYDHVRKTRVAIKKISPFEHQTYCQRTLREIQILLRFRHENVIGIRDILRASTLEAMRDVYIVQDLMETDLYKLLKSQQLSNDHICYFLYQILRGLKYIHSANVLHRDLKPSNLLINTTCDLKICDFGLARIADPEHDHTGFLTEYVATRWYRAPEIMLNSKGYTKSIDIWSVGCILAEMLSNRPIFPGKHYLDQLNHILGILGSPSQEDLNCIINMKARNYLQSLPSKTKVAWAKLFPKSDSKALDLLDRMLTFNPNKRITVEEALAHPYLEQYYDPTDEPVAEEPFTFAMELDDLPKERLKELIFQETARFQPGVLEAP
Sequence of Aurora kinase B (Q96GD4 whole entry): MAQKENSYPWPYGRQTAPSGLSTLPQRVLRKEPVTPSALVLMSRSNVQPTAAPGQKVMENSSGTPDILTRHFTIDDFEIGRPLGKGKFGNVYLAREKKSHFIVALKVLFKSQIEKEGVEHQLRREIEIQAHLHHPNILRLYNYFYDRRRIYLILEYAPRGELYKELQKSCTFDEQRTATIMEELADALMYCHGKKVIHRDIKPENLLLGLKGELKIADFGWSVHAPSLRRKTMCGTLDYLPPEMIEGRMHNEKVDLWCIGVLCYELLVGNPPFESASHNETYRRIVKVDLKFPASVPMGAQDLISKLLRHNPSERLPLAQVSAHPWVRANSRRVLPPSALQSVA
Sequence of Cyclin-dependent kinase 1/cyclin B1 (P06493 whole entry): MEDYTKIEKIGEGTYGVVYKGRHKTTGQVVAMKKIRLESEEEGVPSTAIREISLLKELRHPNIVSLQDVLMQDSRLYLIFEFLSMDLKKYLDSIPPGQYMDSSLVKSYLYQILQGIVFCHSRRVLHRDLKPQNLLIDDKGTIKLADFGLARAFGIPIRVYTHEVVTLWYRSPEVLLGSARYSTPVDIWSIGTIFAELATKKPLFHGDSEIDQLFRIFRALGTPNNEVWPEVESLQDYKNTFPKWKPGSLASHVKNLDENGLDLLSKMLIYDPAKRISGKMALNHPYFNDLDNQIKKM
Sequence of Cyclin-dependent kinase 1/cyclin B1 (P14635 whole entry, further chain): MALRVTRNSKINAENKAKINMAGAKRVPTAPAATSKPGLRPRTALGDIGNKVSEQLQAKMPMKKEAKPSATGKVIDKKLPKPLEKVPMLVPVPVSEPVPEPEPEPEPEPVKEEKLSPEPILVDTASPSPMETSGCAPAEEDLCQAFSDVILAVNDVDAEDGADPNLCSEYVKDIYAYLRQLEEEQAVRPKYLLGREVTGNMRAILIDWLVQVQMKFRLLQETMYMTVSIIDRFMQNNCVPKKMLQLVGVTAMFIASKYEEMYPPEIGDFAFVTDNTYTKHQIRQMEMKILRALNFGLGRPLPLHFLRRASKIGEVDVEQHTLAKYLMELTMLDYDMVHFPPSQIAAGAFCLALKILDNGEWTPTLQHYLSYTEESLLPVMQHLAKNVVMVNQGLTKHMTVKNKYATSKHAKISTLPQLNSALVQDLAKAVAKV

SMILES: N#Cc1c(Oc2ccc(F)c(NC(=O)Cc3cccc(C(F)(F)F)c3)c2)ccc2nc(NC(=O)C3CC3)sc12
- IC50 [1]: > 10000 nM
- T/C [2]: -12.1%
- Ratio IC50 [3]: 67
- T/C [4]: 26%
- IC50 [5]: > 10000 nM
- IC50 [6]: > 10000 nM
- T/C [7]: -2.1%
- IC50 [8]: 16 nM
- IC50 [9]: 1.5 nM
- IC50 [10]: > 10000 nM
- IC50 [11]: 5 nM
- clearance [12]: 6.67 mL/min/kg
- IC50 [13]: 8.1 nM
- inhibition ([13]; TDE = time-dependent effect): tde
- IC50 [14]: > 10000 nM
- IC50 [15]: 1.4 nM
- IC50 [16]: 75 nM
- IC50 [17]: 66 nM
- IC50 [18]: > 10000 nM
- Activity [19]: 28.4 g
- solubility [20]: 740 µg/mL (≈ 1330 µM)
- Activity [21]: 14 g
- IC50 [22]: 580 nM
- Activity [23]: 9.8 g
- MRT [24]: 2.23 h
- IC50 [25]: 500 nM
- IC50 [26]: > 10000 nM
- IC50 [27]: 790 nM
- IC50 [28]: > 10000 nM
- AUC(0-t) at 24 h [29]: 2510 ng·h/mL
- Kd [30]: 0.52 nM
- Activity [31]: 11.2 g
- MRT [32]: 4.69 h
- solubility [33]: < 0.02 µg/mL
- Activity [34]: 9.3 g
- MRT [35]: 6.27 h
- IC50 [36]: 62 nM
- T1/2 [37]: 2.15 h
- T/C [38]: 103%
- IC50 [39]: > 10000 nM
